Source: PubChem BioAssay AID330 (DTP/NCI, 2004)
Several values for one entry are separate records, joined by “and”; a condition that tells them apart may be missing. Identical values can stand only once. Toxic doses and inconclusive results are not listed.

Tested on: P388 leukemia ip, CD2F1 mice, survival T/C
Assay: NCI In Vivo Anticancer Drug Screen. Data for tumor model P388 Leukemia (intraperitoneal) in CD2F1 (CDF1) mice
Conditions: endpoint: median survival time, higher = longer survival
How it was run: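 Mice carrying the transplanted tumor received test compound or vehicle. Survival was recorded in each group, and the value is the treated-group measurement divided by that of the vehicle-treated control group.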

[1] = dose: 50.0 mg/kg/injection, schedule: Q01DX005 (ip), vehicle: saline with Tween-80
[2] = dose: 100.0 mg/kg/injection, schedule: Q01DX005 (ip), vehicle: saline with Tween-80
[3] = dose: 50.0 mg/kg/injection, schedule: Q01DX009 (ip), vehicle: saline with Tween-80
[4] = dose: 100.0 mg/kg/injection, schedule: Q01DX009 (ip), vehicle: saline with Tween-80
[5] = dose: 200.0 mg/kg/injection, schedule: Q01DX009 (ip), vehicle: saline with Tween-80
[6] = dose: 60.0 mg/kg/injection, schedule: Q01DX005 (ip), vehicle: saline with Tween-80
[7] = dose: 120.0 mg/kg/injection, schedule: Q01DX005 (ip), vehicle: saline with Tween-80
[8] = dose: 240.0 mg/kg/injection, schedule: Q01DX005 (ip), vehicle: saline with Tween-80
[9] = dose: 25.0 mg/kg/injection, schedule: Q01DX005 (ip), vehicle: Klucel (hydroxypropylcellulose) (HPC)
[10] = dose: 50.0 mg/kg/injection, schedule: Q01DX005 (ip), vehicle: Klucel (hydroxypropylcellulose) (HPC)
[11] = dose: 100.0 mg/kg/injection, schedule: Q01DX005 (ip), vehicle: Klucel (hydroxypropylcellulose) (HPC)
[12] = dose: 50.0 mg/kg/injection, schedule: Q01DX009 (ip), vehicle: saline
[13] = dose: 6.25 mg/kg/injection, schedule: Q01DX009 (ip), vehicle: saline

## CC1CS(=O)(=O)O1 (stereo not given)
dose: 60.0 mg/kg/injection, schedule: Q01DX005 (ip), vehicle: Klucel (hydroxypropylcellulose) (HPC)
  T/C: 104 % of control
dose: 120.0 mg/kg/injection, schedule: Q01DX005 (ip), vehicle: Klucel (hydroxypropylcellulose) (HPC)
  T/C: 103 % of control
dose: 240.0 mg/kg/injection, schedule: Q01DX005 (ip), vehicle: Klucel (hydroxypropylcellulose) (HPC)
  T/C: 110 % of control

## COc1cccc(N=C(C)C2C(=O)c3ccccc3C2=O)c1
[1]
  T/C: 109 % of control
[2]
  T/C: 100 % of control
dose: 200.0 mg/kg/injection, schedule: Q01DX005 (ip), vehicle: saline with Tween-80
  T/C: 95 % of control

## ClCCN(CCCl)c1ccc(/C=N/Nc2ccnc3cc(Cl)ccc23)cc1
[3]
  T/C: 95 % of control
[4]
  T/C: 101 % of control
[5]
  T/C: 93 % of control

## CC12COC(=O)CC1CCC1C2CCC2(C)C1CCC2(C)O (stereo not given)
dose: 100.0 mg/kg/injection, schedule: Q04DX003 (ip), vehicle: saline with Tween-80
  T/C: 95 % of control
dose: 200.0 mg/kg/injection, schedule: Q04DX003 (ip), vehicle: saline with Tween-80
  T/C: 104 % of control

## COc1c(OC)c(C2(O)C(=O)N(C)c3ccccc32)c(OC)c(OC)c1C1(O)C(=O)N(C)c2ccccc21 (stereo not given)
[6]
  T/C: 88 % of control
[7]
  T/C: 87 % of control
[8]
  T/C: 87 % of control

## COC1(OC)CC=COC1(OC)OC
dose: 60.0 mg/kg/injection, schedule: Q01DX005 (ip), vehicle: saline
  T/C: 103 % of control
dose: 120.0 mg/kg/injection, schedule: Q01DX005 (ip), vehicle: saline
  T/C: 105 % of control
dose: 240.0 mg/kg/injection, schedule: Q01DX005 (ip), vehicle: saline
  T/C: 114 % of control

## C=C(c1ccccc1)C1(O)CCCCC1N(C)C (stereo not given)
dose: 25.0 mg/kg/injection, schedule: Q04DX002 (ip), vehicle: saline with Tween-80
  T/C: 102 % of control
dose: 50.0 mg/kg/injection, schedule: Q04DX002 (ip), vehicle: saline with Tween-80
  T/C: 100 % of control
dose: 100.0 mg/kg/injection, schedule: Q04DX002 (ip), vehicle: saline with Tween-80
  T/C: 94 % of control

## CC(C)(C)OC(=O)NCCCCC(NC(=O)OCc1ccccc1)C(=O)O (stereo not given)
[9]
  T/C: 102 % of control
[10]
  T/C: 100 % of control
[11]
  T/C: 101 % of control

## CCCc1[nH]nc(-c2n[nH]c(CCC)c2CC)c1CC
[6]
  T/C: 101 % of control
[7]
  T/C: 93 % of control
[8]
  T/C: 110 % of control

## CCCCn1c(C)nc2ccccc21
[1]
  T/C: 100 % of control
[2]
  T/C: 100 % of control

## COc1c(C)c(O)c2c(c1O)/C(=C/N=NC(N)=S)C(Cl)=N2
dose: 100.0 mg/kg/injection, schedule: Q01DX001 (ip), vehicle: saline with Tween-80
  T/C: 103 % of control
dose: 200.0 mg/kg/injection, schedule: Q01DX001 (ip), vehicle: saline with Tween-80
  T/C: 103 % of control
dose: 400.0 mg/kg/injection, schedule: Q01DX001 (ip), vehicle: saline with Tween-80
  T/C: 96 % of control

## CC(=O)OCCCCCCCCCCCCCCCCCC1=C(C)C(=O)OC1=O
[9]
  T/C: 96 % of control
[10]
  T/C: 97 % of control
[11]
  T/C: 103 % of control
dose: 200.0 mg/kg/injection, schedule: Q01DX005 (ip), vehicle: Klucel (hydroxypropylcellulose) (HPC)
  T/C: 99 % of control
dose: 400.0 mg/kg/injection, schedule: Q01DX005 (ip), vehicle: Klucel (hydroxypropylcellulose) (HPC)
  T/C: 92 % of control

## COc1cccc2c1C(=O)c1c(O)c3c(c(O)c1C2=O)C[C@@](O)(C(=O)CO)C[C@@H]3OC1CC(N2CCOCC2C#N)C(O)C(C)O1 (stereo not given in full)
dose: 9.38 micrograms/kg/injection, schedule: Q04DX003 (ip), vehicle: saline with Tween-80
  T/C: 191 % of control and 198 % of control
dose: 9.38 micrograms/kg/injection, schedule: Q04DX003 (ip), vehicle: water
  T/C: 105 % of control
dose: 15.0 micrograms/kg/injection, schedule: Q04DX003 (iv), vehicle: saline + alcohol
  T/C: 180 % of control
dose: 18.75 micrograms/kg/injection, schedule: Q04DX003 (ip), vehicle: saline with Tween-80
  T/C: 252 % of control and 260 % of control
dose: 18.75 micrograms/kg/injection, schedule: Q04DX003 (ip), vehicle: water
  T/C: 107 % of control
dose: 22.0 micrograms/kg/injection, schedule: Q04DX003 (iv), vehicle: saline + alcohol
  T/C: 180 % of control
dose: 37.5 micrograms/kg/injection, schedule: Q04DX003 (ip), vehicle: saline with Tween-80
  T/C: 110 % of control
dose: 75.0 micrograms/kg/injection, schedule: Q04DX003 (ip), vehicle: water
  T/C: 178 % of control and 196 % of control
dose: 150.0 micrograms/kg/injection, schedule: Q04DX003 (ip), vehicle: water
  T/C: 111 % of control
dose: 300.0 micrograms/kg/injection, schedule: Q04DX003 (ip), vehicle: water
  T/C: 89 % of control

## O=C(O)c1c[nH]c2cc(S(=O)(=O)O)ccc2c1=O
[12]
  T/C: 95 % of control
dose: 100.0 mg/kg/injection, schedule: Q01DX009 (ip), vehicle: saline
  T/C: 100 % of control
dose: 200.0 mg/kg/injection, schedule: Q01DX009 (ip), vehicle: saline
  T/C: 92 % of control

## C=C1C(=O)OC2/C=C(\C)CC/C=C(/C=O)C(OC(=O)C(C)C)C(O)C12 (stereo not given)
dose: 8.0 mg/kg/injection, schedule: Q01DX009 (ip), vehicle: saline + alcohol
  T/C: 97 % of control

## O=C(CO)c1ccc([N+](=O)[O-])cc1
dose: 1.56 mg/kg/injection, schedule: Q01DX009 (ip), vehicle: saline with Tween-80
  T/C: 99 % of control
dose: 3.13 mg/kg/injection, schedule: Q01DX009 (ip), vehicle: saline with Tween-80
  T/C: 101 % of control
dose: 6.25 mg/kg/injection, schedule: Q01DX009 (ip), vehicle: saline with Tween-80
  T/C: 106 % of control
dose: 12.5 mg/kg/injection, schedule: Q01DX009 (ip), vehicle: saline with Tween-80
  T/C: 116 % of control

## CC(=O)NC1C(Nc2ccc(S(=O)(=O)Nc3cc(C)nc(C)n3)cc2)OC(CO)C(O)C1O (stereo not given)
dose: 50.0 mg/kg/injection, schedule: Q01DX005 (ip), vehicle: saline
  T/C: 108 % of control
dose: 100.0 mg/kg/injection, schedule: Q01DX005 (ip), vehicle: saline
  T/C: 98 % of control
dose: 200.0 mg/kg/injection, schedule: Q01DX005 (ip), vehicle: saline
  T/C: 101 % of control

## CC(=O)C[n+]1ccccc1Cc1ccccc1
dose: 25.0 mg/kg/injection, schedule: Q01DX005 (ip), vehicle: saline with Tween-80
  T/C: 99 % of control
[1]
  T/C: 100 % of control

## Nc1nc(Nc2ccc(C3=NCCN3)cc2)nc(Nc2ccc(C3=NCCN3)cc2)n1
[13]
  T/C: 122 % of control
dose: 6.25 mg/kg/injection, schedule: Q01DX009 (ip), vehicle: suspension in saline
  T/C: 108 % of control

## O=NNc1ccc(Sc2ccc(NN=O)cn2)nc1
dose: 3.12 mg/kg/injection, schedule: Q01DX009 (ip), vehicle: saline
  T/C: 100 % of control
[13]
  T/C: 107 % of control
dose: 12.5 mg/kg/injection, schedule: Q01DX009 (ip), vehicle: saline
  T/C: 114 % of control
[12]
  T/C: 122 % of control

## O=C(CC1(O)C(=O)N(CN2CCCCC2)c2ccccc21)c1ccccc1 (stereo not given)
[3]
  T/C: 110 % of control
[4]
  T/C: 97 % of control

## O=C1CCSCC1
[3]
  T/C: 99 % of control
[4]
  T/C: 113 % of control
[5]
  T/C: 100 % of control
dose: 400.0 mg/kg/injection, schedule: Q01DX009 (ip), vehicle: saline with Tween-80
  T/C: 98 % of control

## Cn1c(=O)c2[nH]c([N+](=O)[O-])nc2n(C)c1=O
dose: 100.0 mg/kg/injection, schedule: Q04DX003 (ip), vehicle: saline
  T/C: 96 % of control
dose: 200.0 mg/kg/injection, schedule: Q04DX003 (ip), vehicle: saline
  T/C: 100 % of control
dose: 400.0 mg/kg/injection, schedule: Q04DX003 (ip), vehicle: saline
  T/C: 100 % of control

## CSc1nc(Cl)cc(=O)n1C
dose: 6.25 mg/kg/injection, schedule: Q01DX005 (ip), vehicle: Klucel (hydroxypropylcellulose) (HPC)
  T/C: 104 % of control
dose: 12.5 mg/kg/injection, schedule: Q01DX005 (ip), vehicle: Klucel (hydroxypropylcellulose) (HPC)
  T/C: 105 % of control
[9]
  T/C: 100 % of control and 92 % of control

## COc1ccc(C(O)(C2CC2)C2CC2)cc1
dose: 100.0 mg/kg/injection, schedule: Q01DX001 (ip), vehicle: Klucel (hydroxypropylcellulose) (HPC)
  T/C: 98 % of control
dose: 200.0 mg/kg/injection, schedule: Q01DX001 (ip), vehicle: Klucel (hydroxypropylcellulose) (HPC)
  T/C: 94 % of control
dose: 400.0 mg/kg/injection, schedule: Q01DX001 (ip), vehicle: Klucel (hydroxypropylcellulose) (HPC)
  T/C: 98 % of control
